# Laboratory results published in US20220324770A1, “NITRIFICATION INHIBITORS” (The University of Melbourne, priority 2019, published 2022).
# Tests used:
# Dahlen soil = experiment: Soil thin-layer chromatography (TLC) leaching study, Dahlen soil; type: physicochemical; details: Dahlen soil TLC
# Procedure: (§1) TLC plates were prepared based on methods described in the literature (Helling, C. S., Turner, B. C, Science 1968, 162, 562-563; Mohammad, A., Jabeen, N., JPC—Journal of Planar Chromatography—Modern TLC 2003, 16, 137-143). Masking tape (3 layers, ˜[…] total thickness) was used to outline three columns (4 cm W×12 cm H) on a glass TLC plate (20×20 cm). A slurry of freshly ground soil in distilled H2O (˜2:3 m/v) was then poured onto the prepared plate and spread evenly using a glass rod. Once even, the plate was dried overnight in an oven at 35° C. Careful removal of the masking tape afforded the TLC plate ready for sample application.
# (§2) Samples of DMP (the active core of DMPP) or Compound 16 (˜1 mg) dissolved in acetone (100 μL) were pipetted in a straight line across the soil, 2 cm above the base of the plate. Application band thickness was kept under 0.5 cm. After 30 mins of drying time, the TLC plate was developed inside a glass developing chamber with distilled H2O (depth of 0.5 cm) until the solvent front reached the top of the soil (˜1 hr). […] The plate was then allowed to air dry overnight.
# (§3) Once dry, the plate was divided into six horizontal bands corresponding to Rf values of: (1) <0.05 (baseline), (2) 0.05 to 0.25, (3) 0.25 to 0.45, (4) 0.45 to 0.65, (5) 0.65 to 0.85, and (6) 0.85 to 1. In sequence, soil in each band was carefully scraped off the glass backing and collected in vials. Special care was taken to avoid cross-contamination between soil of different bands, and the separate channels.
# (§4) Individual soil bands collected from the TLC plate were extracted as follows: • 1. Addition of an aqueous solution of CaCl2/MgSO4 (0.01M and 0.45M respectively, 2 mL). • 2. Sonication for 5 minutes then manual shaking for 30 seconds. • 3. Addition of methyl-tert-butyl ether (MTBE, 2 mL) then manual shaking for 30 seconds. • 4. Sonication for 10 minutes then manual shaking for 30 seconds. • 5. Rested until soil began to settle, then frozen overnight at −20° C. • 6. After partial defrosting, the ethereal extract was filtered through nylon syringe filters (FilterBio®, 13 mm diameter, 0.45 µm pore size).
# (§5) The filtered ethereal extracts (450 μL) were spiked with 50 μL of a standard solution of either cyclododecanone in MTBE (1.97 mg/mL, for DMP-treated samples) or cyclooctanone in MTBE (6.37 mg/mL, for 16-treated samples). Samples were then directly analysed by GC-MS (method: 70° C. for 5 mins, then ramp 10° C./min to 250° C., hold at 250° C. for 17 mins [total run time=40 minutes]) to analyse the presence or absence of the inhibitor in each soil band.
# (§6) GC-MS peak areas calculated for the standards cyclooctanone (Rt=9.1 mins) and cyclododecanone (Rt=15.8 mins) were compared to those calculated for Compound 16 (Rt=13.9 mins) and DMP (Rt=7.6 mins) respectively, for each soil sample extract where inhibitor was detected as follows:
# (§7) As each treatment was run in triplicate, mean values are reported for detected inhibitor percentages for each Rf band, with errors presented as the standard deviation.
# as §2, with “the DCD” for “DMP (the active core of DMPP) or Compound 16”, “methanol (300” for “acetone (100”, “in” for “with”
# (§8) Individual soil bands collected from the TLC plate were extracted as follows: • 1. Addition of methanol (2 mL). • 2. Manual shaking for 30 seconds following sonication for 15 minutes. • 3. Once soil began to settle, the methanolic extract was filtered through nylon syringe filters (FilterBio®, 13 mm diameter, 0.45 µm pore size). • 4. 300 μL of the methanolic extracts were evaporated under nitrogen flow, and then the residues was taken up in ultrapure acetonitrile (1 mL). • 5. […]
# South Johnstone soil = experiment: Soil thin-layer chromatography (TLC) leaching study, South Johnstone soil; type: physicochemical
# Procedure: as §1, §2, §3, §4, §5, §6, §7
# as §2, with “the DCD” for “DMP (the active core of DMPP) or Compound 16”, “methanol (300” for “acetone (100”, “in” for “with”
# as §8
SMILES,"Rf range of largest DCD accumulation (Dahlen soil; HPLC detection, preliminary results)","Rf range of largest DCD accumulation (South Johnstone soil; South Johnstone soil TLC, HPLC detection, preliminary results)",Rf range in which the majority of the inhibitor was detected (Dahlen soil),Detected Inhibitor (%) (Dahlen soil; Rf 0.45-0.65),Detected Inhibitor (%) (Dahlen soil; Rf 0.65-0.85),Detected Inhibitor (%) (Dahlen soil; Rf 0.85-1),"Detected Inhibitor (%) (South Johnstone soil; South Johnstone soil TLC, Rf 0.25-0.45)","Detected Inhibitor (%) (South Johnstone soil; South Johnstone soil TLC, Rf 0.45-0.65)","Detected Inhibitor (%) (South Johnstone soil; South Johnstone soil TLC, Rf 0.65-0.85)",leaching in soil TLC (South Johnstone soil; acidic South Johnstone soil)
"N#CN=C(N)N [DCD, dicyandiamide, reference compound]",0.65-1,0.65-1,–,–,–,–,–,–,–,–
"Cc1c[nH]nc1C [DMP, 3,4-dimethylpyrazole, reference compound]",–,–,0.65-0.85,0.1 ± 0.2%,72 ± 16%,28 ± 16%,2 ± 2%,56 ± 12%,42 ± 13%,leach in a narrower band and to a lesser extent than Compound 16
